The values that follow come from patent US20250186448A1 (Mezzion Pharma Co., Ltd., priority 2021, published 2025).

Values joined by “and” are separate entries in the source; they are usually repeats but may differ in a detail not shown here. Equal entries are not always repeated.

This experiment deals with adolescents with Single Ventricle Heart Disease who underwent Fontan palliation. The experiment is described as follows: FALD study: liver stiffness by ultrasound shear wave elastography (SWE). The format is in vivo, human. On the set-up: USWE, Post Baseline: unit not given beside the values; USWE, Change from Baseline: unit not given here. As to conditions: Cohort U− (udenafil for 52 weeks), individual subject. The source says: Ultrasound SWE uses one or more acoustic radiation force impulses (ARFI) or “push pulses” to generate shear waves in the tissue of interest. These shear waves can be tracked and their speed measured, with increasing tissue stiffness associated with increasing tissue shear wave speed. Shear wave speed can be mathematically converted to both shear and Young's moduli (in kPa), mechanical properties related to tissue rigidity and elasticity. There are two major forms of ultrasound SWE-“point” and “2D”. Point ultrasound SWE provides a very focal estimate of liver stiffness using a small region-of-interest, wh[…] ultrasound SWE provides a regional color parameteric map (elastogram) of image stiffness and allows measurement over a much larger area of the liver. The FALD study, ClinicalTrials.gov Identifier: NCT03430583, which is incorporated herein by reference in its entirety, was an open-label extension study that integrated with the FUEL Extension Trial. […] Both the U- cohort and the U+ cohort had liver stiffness measured by ultrasound and MR elastography (where available), and ELF biomarkers analyzed, as described above. […] The primary outcome measure of the FALD study was the range of liver stiffness in adolescents with Single Ventricle Heart Disease who underwent Fontan palliation. Secondary outcome measures included the effect of drug therapy on liver stiffness, and the effect of drug therapy on Enhanced Liver Fibrosis (ELF) score. See Clinical Trials.gov identifier NCT03430583, at p. 3. It is to be understood that present invention contemplates udenafil drug products that are therapeutically equivalent to the udenafil drug products of the present invention.

On to `CCCOc1ccc(S(=O)(=O)NCCC2CCCN2C)cc1-c1nc2c(CCC)nn(C)c2c(=O)[nH]1` (stereo not drawn) [Udenafil, udenafil], for which the “USWE, % Change from Baseline” value was −2.439% and −7.692% and 6.011% and 20.92% and −0.9302% and −22.07% and −1.22%; the “USWE, Change from Baseline” value was −0.06 and −0.13 and 0.11 and 0.41 and −0.02 (2×) and −0.49 and 0.09. Moreover, for the setting “Post Baseline visit (52 week)”, the “USWE, Post Baseline” value is 2.4 and 1.56 and 1.94 and 2.37 and 2.13 and 1.73 and 1.62 and 2.08.
